Laboratory results as given in ChEMBL document CHEMBL4251646, “Improved antibacterial activity of a marine peptide-N2 against intracellular Salmonella typhimurium by conjugating with cell-penetrating peptides-bLFcin6/Tat11” (Eur J Med Chem, 2018).
In brackets after ≈: the same amount, converted by molar mass.

What was measured:
[1] = Drug uptake in mouse RAW264.7 cells at 5 uM using FITC-labeled test compound after 2 hrs by flow cytometry; format: ADME, cell-based; conditions: raw264.7, 2 h
[2] = Drug uptake in mouse RAW264.7 cells at 5 uM using FITC-labeled test compound after 0.5 hrs by flow cytometry; format: ADME, cell-based; conditions: raw264.7, 0.5 h
[3] = Drug internalization in mouse RAW264.7 cells at 1 uM using FITC-labeled test compound after 2 hrs by flow cytometry; format: ADME, cell-based; conditions: raw264.7, 2 h
[4] = Drug internalization in mouse RAW264.7 cells at 1 uM using FITC-labeled test compound after 0.5 hrs by flow cytometry; format: ADME, cell-based; conditions: raw264.7, 0.5 h
[5] = Drug uptake in mouse RAW264.7 cells at 5 uM using FITC-labeled test compound after 5 hrs by Hoechst 33342/FM 4-64 staining-based confocal microscopic analysis; format: ADME, cell-based; conditions: raw264.7, 5 h
[6] = Drug internalization in mouse RAW264.7 cells using FITC-labeled test compound by flow cytometry; format: ADME, cell-based
[7] = Cytotoxicity against mouse RAW264.7 cells assessed as cell survival at 100 uM after 8 hrs by MTT assay; format: cell-based; conditions: read-out: Survival
[8] = system: Salmonella typhimurium; assay: Antibacterial activity against Salmonella typhimurium ATCC 14028 at pH 7 after 16 to 18 hrs by broth microdilution method; format: functional, Salmonella enterica subsp. enterica serovar Typhimurium; conditions: Salmonella enterica
[9] = system: Salmonella typhimurium; assay: Bactericidal activity against Salmonella typhimurium ATCC 14028 infected in mouse RAW264.7 cells assessed as log reduction in intracellular bacterial load at 100 uM within 3 to 9 hrs in presence of gentamycin; format: functional, Salmonella enterica subsp. enterica serovar Typhimurium
[10] = system: Salmonella typhimurium; assay: Antibacterial activity against Salmonella typhimurium ATCC 14028 assessed as survival at 10 uM after 3 hrs by broth microdilution method; format: functional, Salmonella enterica subsp. enterica serovar Typhimurium
[11] = system: Salmonella typhimurium; assay: Bactericidal activity against Salmonella typhimurium ATCC 14028 at 10 uM within 3 to 9 hrs; format: functional, Salmonella enterica subsp. enterica serovar Typhimurium
[12] = system: Salmonella typhimurium; assay: Antibacterial activity against Salmonella typhimurium ATCC 14028 at pH 5 after 16 to 18 hrs by broth microdilution method; format: functional, Salmonella enterica subsp. enterica serovar Typhimurium; conditions: Salmonella enterica
[13] = system: Salmonella typhimurium; assay: Bactericidal activity against Salmonella typhimurium ATCC 14028 infected in mouse RAW264.7 cells assessed as log reduction in intracellular bacterial load at 50 uM within 3 to 9 hrs in presence of gentamycin; format: functional, Salmonella enterica subsp. enterica serovar Typhimurium
[14] = system: Salmonella typhimurium; assay: Bactericidal activity against Salmonella typhimurium ATCC 14028 infected in mouse RAW264.7 cells assessed as log reduction in intracellular bacterial load at 10 uM after 10 hrs in presence of gentamycin; format: functional, Salmonella enterica subsp. enterica serovar Typhimurium
[15] = system: Salmonella typhimurium; assay: Bactericidal activity against Salmonella typhimurium ATCC 14028 infected in mouse RAW264.7 cells assessed as log reduction in intracellular bacterial load at 20 uM within 3 to 9 hrs in presence of gentamycin; format: functional, Salmonella enterica subsp. enterica serovar Typhimurium

| Compound | Drug uptake [1] | Drug uptake [2] | Drug uptake [3] | Drug uptake [4] | Drug uptake [5] | Drug uptake [6] | viability at 8 h, 100 µM [7] | MIC [8] | log(activity) [9] | Survival [10] | Activity [11] | MIC [12] | log(activity) [13] | log(activity) [14] | log(activity) [15] |
| --- | --- | --- | --- | --- | --- | --- | --- | --- | --- | --- | --- | --- | --- | --- | --- |
| CC(C)[C@@H]1NC(=O)[C@H](C)NC(=O)[C@H](CC(N)=O)NC(=O)[C@H](CCCNC(=N)N)NC(=O)[C@H](Cc2ccc(O)cc2)NC(=O)[C@H](C(C)C)NC(=O)[C@@H]2CSSC[C@H](NC(=O)[C@H](C(C)C)NC(=O)[C@H](CCCNC(=N)N)NC1=O)C(=O)N[C@@H](Cc1c[nH]cn1)C(=O)N[C@@H](CCCNC(=N)N)C(=O)N[C@@H](CCCNC(=N)N)C(=O)N[C@H](C(=O)N[C@@H](CC(N)=O)C(=O)O)CSSC[C@H](NC(=O)[C@H](Cc1ccccc1)NC(=O)[C@H](C)N)C(=O)N[C@@H](Cc1c[nH]c3ccccc13)C(=O)N[C@@H](CC(N)=O)C(=O)N[C@@H](C(C)C)C(=O)N2 | 93.4% | 50% | 31.4% | 17.3% | Not Active | Dose-dependent effect and Tde | 103% |  |  |  |  |  |  |  |  |
| CC(C)[C@@H]1NC(=O)[C@H](C)NC(=O)[C@H](CC(N)=O)NC(=O)[C@H](CCCNC(=N)N)NC(=O)[C@H](Cc2ccc(O)cc2)NC(=O)[C@H](C(C)C)NC(=O)[C@@H]2CSSC[C@H](NC(=O)[C@H](C(C)C)NC(=O)[C@H](CCCNC(=N)N)NC1=O)C(=O)N[C@@H](Cc1cnc[nH]1)C(=O)N[C@@H](CCCNC(=N)N)C(=O)N[C@@H](CCCNC(=N)N)C(=O)N[C@H](C(=O)N[C@@H](CC(N)=O)C(=O)O)CSSC[C@H](NC(=O)[C@H](Cc1ccccc1)NC(=O)[C@H](C)NC(=O)[C@H](CCCNC(=N)N)NC(=O)[C@H](Cc1c[nH]c3ccccc13)NC(=O)[C@H](CCC(N)=O)NC(=O)[C@H](Cc1c[nH]c3ccccc13)NC(=O)[C@H](CCCNC(=N)N)NC(=O)[C@@H](N)CCCNC(=N)N)C(=O)N[C@@H](Cc1c[nH]c3ccccc13)C(=O)N[C@@H](CC(N)=O)C(=O)N[C@@H](C(C)C)C(=O)N2 |  |  |  |  |  |  |  | 2.25 µM (≈ 7.95 µg/mL) | 2.1 | 1.9 ×10⁵ CFU/ml | 34.22 - 91.35% | 9 µM (≈ 31.8 µg/mL) | 1.63 |  |  |
| CC(C)[C@@H]1NC(=O)[C@H](C)NC(=O)[C@H](CC(N)=O)NC(=O)[C@H](CCCNC(=N)N)NC(=O)[C@H](Cc2ccc(O)cc2)NC(=O)[C@H](C(C)C)NC(=O)[C@@H]2CSSC[C@H](NC(=O)[C@H](C(C)C)NC(=O)[C@H](CCCNC(=N)N)NC1=O)C(=O)N[C@@H](Cc1cnc[nH]1)C(=O)N[C@@H](CCCNC(=N)N)C(=O)N[C@@H](CCCNC(=N)N)C(=O)N[C@H](C(=O)N[C@@H](CC(N)=O)C(=O)O)CSSC[C@H](NC(=O)[C@H](Cc1ccccc1)NC(=O)[C@H](C)NC(=O)[C@H](CCCNC(=N)N)NC(=O)[C@H](CCCNC(=N)N)NC(=O)[C@H](CCCNC(=N)N)NC(=O)[C@H](CCC(N)=O)NC(=O)[C@H](CCCNC(=N)N)NC(=O)[C@H](CCCNC(=N)N)NC(=O)[C@H](CCCCN)NC(=O)[C@H](CCCCN)NC(=O)[C@H](CCCNC(=N)N)NC(=O)CNC(=O)[C@@H](N)Cc1ccc(O)cc1)C(=O)N[C@@H](Cc1c[nH]c3ccccc13)C(=O)N[C@@H](CC(N)=O)C(=O)N[C@@H](C(C)C)C(=O)N2 |  |  |  |  |  |  |  | 1.94 µM (≈ 7.97 µg/mL) |  | 1.5 ×10⁵ CFU/ml | 48.28 - 98.85% | 3.89 µM (≈ 16 µg/mL) | 3.26 | 1.19 | 1.57 |
